Assay results as given in patent US7351692B2, “Method and composition for potentiating the antipyretic action of a nonopioid analgesic” (The Board of Trustees of the University of Illinois, priority 2002, dated 2008).
Non-standard residues stand in square brackets, D forms with d. Residues, ends and D or L forms follow the SMILES beside them.

Legend:
ETA receptor = molecular target: T1, ETA receptor (Rattus norvegicus, UniProt P26684); settings: cited from earlier work
T1 construct: host or cells: whole animal, central (intracerebroventricular) administration
T1 sequence (P26684 21-426): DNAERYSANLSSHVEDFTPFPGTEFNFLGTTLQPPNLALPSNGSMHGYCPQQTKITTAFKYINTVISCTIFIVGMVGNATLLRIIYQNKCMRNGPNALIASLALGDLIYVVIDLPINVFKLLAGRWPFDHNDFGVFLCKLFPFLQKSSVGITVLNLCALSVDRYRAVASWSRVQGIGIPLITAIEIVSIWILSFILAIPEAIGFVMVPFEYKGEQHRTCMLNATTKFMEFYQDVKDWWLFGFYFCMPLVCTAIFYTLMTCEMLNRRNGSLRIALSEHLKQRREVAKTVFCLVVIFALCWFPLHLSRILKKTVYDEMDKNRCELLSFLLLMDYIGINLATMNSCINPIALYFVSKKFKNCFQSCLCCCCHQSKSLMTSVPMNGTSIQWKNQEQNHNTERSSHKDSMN

[1] = Body weight of mice before drug and at end of experiment; assay type: in vivo; settings: before drug vs 7 hours after acetaminophen, acetaminophen 300 mg/kg s.c., BQ123 3 μg i.c.v.
Method: (§1) Male Swiss-Webster mice weighing 25 to 30 grams (Harlan, Indianapolis, Ind.) were housed four per cage in a room having a controlled ambient temperature (23±1° C.), humidity (50±10%), and twelve-hour light/dark cycle (6:00 a.m. to 6:00 p.m.). Food and water were available ad libitum. The experiments were-performed after the mice were acclimated to this environment for at least four days.
For i.c.v. administration of the endothelin antagonist BQ123, a mouse was grasped firmly by the loose skin behind the head and the skin was pulled taut. The site of injection was 2 mm from either side of the midline drawn through the anterior base of the ears. A 27 gauge sterile hypodermic needle attached to a 10 μL sterile Hamilton syringe was inserted perpendicularly through the skull into the brain, and vehicle (sterile saline) or BQ123 was delivered to the ventricle of the mouse brain (see T. J. Haley et al., Brit. J. Pharmacol., 12(12), (1957)). BQ123 (3 μg) or vehicle was administered i.c.v. and volume of drug injection was 5 μL. […]
The body weight of all mice was measured, and no change in body weight between various groups of mice was observed (FIG. 2). Body weight was measured before administration of any drug and at the end of the experiment (i.e., 7 hours after the administration of acetaminophen).

[2] = Measurement of body temperature (colonic temperature, telethermometer); assay type: in vivo; settings: for change in body temperature, drug alone: acetaminophen 300 mg/kg s.c. or BQ123 3 μg i.c.v., over 360 minutes
Method: as §1
(§2) For i.c.v. administration of the endothelin antagonist BQ123, a mouse was grasped firmly by the loose skin behind the head and the skin was pulled taut. The site of injection was 2 mm from either side of the midline drawn through the anterior base of the ears. A 27 gauge sterile hypodermic needle attached to a 10 μL sterile Hamilton syringe was inserted perpendicularly through the skull into the brain, and vehicle (sterile saline) or BQ123 was delivered to the ventricle of the mouse brain (see T. J. Haley et al., Brit. J. Pharmacol., 12(12), (1957)). BQ123 (3 μg) or vehicle was administered i.c.v. and volume of drug injection was 5 μL. Vehicle or BQ123 pretreatment was performed 30 minutes prior to administration of acetaminophen (300 mg/kg s.c.).
(§3) The mice were divided into the following four groups (N=5 in each group): group I (P+V) received vehicle (V) (saline 5 μl, i.c.v.) and placebo (P) (vehicle 100 μl/kg, s.c.); group 2 (P+BQ) received BQ123 (BQ) (3 μg. i.c.v. in a volume of 5 μl of saline) and placebo (P) (vehicle 100 μl/kg, s.c.); group 3 (A+V) received vehicle (V) (saline 5 μl, i.c.v.) and acetaminophen (A) (300 mg/kg, s.c. in a volume of 100 μl/kg); and group 4 (A+BQ) received BQ123 (BQ) (3 μg, i.c.v. in a volume of 5 μl) and acetaminophen (A) (300 mg/kg, s.c. in a volume of 100 μl/kg). Vehicle or BQ123 pretreatment was performed 30 minutes prior to administration of acetaminophen (FIG. 1).
The change in body temperature in response to acetaminophen (300 mg/kg) was determined (Bhargava, 1997). The colonic temperature of each mouse was recorded before and at various times after the injection of acetaminophen over a period of 360 minutes using a telethermometer. Body temperature data was expressed as mean±SEM.

[3] = Measurement of tail-flick latency (thermal stimulation); assay type: in vivo; settings: mice; for effect on tail flick latency (analgesia), drug alone: acetaminophen 300 mg/kg s.c. or BQ123 3 μg i.c.v.
Method: as §1, §2, §3
An analgesic response was determined by the tail flick method (C. Advocat et al., Brain Ref., 55(2), pp. 251-258 (1991); H. N. Bhargava, General Pharmacology, 28(1), pp. 61-64 (1997)). The tail flick latencies to thermal stimulation (focused light) were determined before and 30, 60, 90, 120, 180, 210, 240, 270, 300, and 360 minutes after injection of acetaminophen. The basal tail flick latency was about 2 seconds. A thermal stimulation cutoff time of 10 seconds was used to prevent damage to the tail of the animal. The analgesic response in each mouse was expressed as mean±SEM.

[4] = acetaminophen 3900 mg/d; afebrile patients with acute stroke; cited from earlier work
[5] = 4000 mg acetaminophen daily (n=20); placebo group 36.4%; p=0.014; cited from earlier work
[6] = daily dose of 6000 mg acetaminophen, suppositories, five days; cited from earlier work
COX-1 = COX-1 (Homo sapiens, UniProt P23219); settings: in vitro; cited from earlier work
Chain of COX-1 (P23219 24-599): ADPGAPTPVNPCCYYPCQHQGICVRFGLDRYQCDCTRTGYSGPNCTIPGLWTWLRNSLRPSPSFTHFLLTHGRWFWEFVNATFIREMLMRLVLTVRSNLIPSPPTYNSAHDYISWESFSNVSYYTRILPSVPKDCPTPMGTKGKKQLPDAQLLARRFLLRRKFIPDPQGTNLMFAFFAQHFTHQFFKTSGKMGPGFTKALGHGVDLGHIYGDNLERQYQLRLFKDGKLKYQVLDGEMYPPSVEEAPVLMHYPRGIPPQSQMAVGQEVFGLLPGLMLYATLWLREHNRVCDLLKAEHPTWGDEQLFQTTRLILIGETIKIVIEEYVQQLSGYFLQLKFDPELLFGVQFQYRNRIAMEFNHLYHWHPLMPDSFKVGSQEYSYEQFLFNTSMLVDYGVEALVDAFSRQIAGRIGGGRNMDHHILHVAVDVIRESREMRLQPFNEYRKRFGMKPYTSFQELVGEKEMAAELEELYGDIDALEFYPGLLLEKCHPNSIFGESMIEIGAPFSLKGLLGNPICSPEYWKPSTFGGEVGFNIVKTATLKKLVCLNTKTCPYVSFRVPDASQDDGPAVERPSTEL

COX-2 = molecular target: T2, COX-2 (Homo sapiens, UniProt P35354); settings: in vitro; cited from earlier work
T2 sequence (P35354 18-604): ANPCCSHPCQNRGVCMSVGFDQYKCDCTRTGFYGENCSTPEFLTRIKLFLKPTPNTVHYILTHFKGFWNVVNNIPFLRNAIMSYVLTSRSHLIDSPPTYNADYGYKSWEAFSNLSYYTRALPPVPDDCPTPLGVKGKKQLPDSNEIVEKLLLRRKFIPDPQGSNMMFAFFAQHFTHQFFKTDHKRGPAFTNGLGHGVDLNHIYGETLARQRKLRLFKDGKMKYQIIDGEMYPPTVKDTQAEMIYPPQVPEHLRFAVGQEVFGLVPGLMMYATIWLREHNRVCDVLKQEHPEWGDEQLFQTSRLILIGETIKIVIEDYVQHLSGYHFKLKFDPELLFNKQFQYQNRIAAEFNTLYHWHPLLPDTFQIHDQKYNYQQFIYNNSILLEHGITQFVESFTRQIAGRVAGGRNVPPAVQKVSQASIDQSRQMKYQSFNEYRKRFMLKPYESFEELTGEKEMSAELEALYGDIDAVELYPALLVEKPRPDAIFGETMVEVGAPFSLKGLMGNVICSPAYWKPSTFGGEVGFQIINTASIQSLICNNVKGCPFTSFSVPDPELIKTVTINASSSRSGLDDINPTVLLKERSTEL

prostaglandin synthesis = settings: in vivo; cited from earlier work
[7] = BQ123 3 μg i.c.v. 30 minutes prior to acetaminophen 300 mg/kg s.c.

Structure (SMILES): Cc1noc(NS(=O)(=O)c2cccc3c(N(C)C)cccc23)c1C [BMS-182874]
- effect on BP and HR per se (ETA receptor; administered in the lateral cerebral ventricle): did not affect BP and HR per se
- effect on clonidine induced hypotension and bradycardia (ETA receptor; pretreatment): significantly blocked

Structure (SMILES): CC(C)C[C@@H]1NC(=O)[C@@H](C(C)C)NC(=O)[C@@H]2CCCN2C(=O)[C@@H](CC(=O)O)NC(=O)[C@@H](Cc2c[nH]c3ccccc23)NC1=O [BQ123, cyclo (-D-Trp-D-Asp-Pro-D-Val-Leu-)] (cyclo(L[dW][dD]P[dV]))
- acute effect on body weight [1]: neither acetaminophen nor BQ123 produced any acute effect on body weight
- duration of hypothermic effect of acetaminophen in BQ123 pretreated mice [2, 7]: more than six
- effect of BQ123 on hypothermic effect of acetaminophen ([2]; mice, BQ123 3 μg i.c.v. 30 minutes prior to acetaminophen 300 mg/kg s.c.): significantly potentiated
- change in body temperature, drug alone ([2]; mice): did not produce any significant change in body temperature
- effect of BQ123 on analgesic effect of acetaminophen [3, 7]: not affected
- effect on tail flick latency (analgesia), drug alone ([3]; control about 2 seconds): did not produce any significant effect on tail flick latency

Structure (SMILES): CC(=O)Nc1ccc(O)cc1 [acetaminophen]
- change in body temperature, drug alone ([2]; mice): produced a significant hypothermia
- duration of hypothermia after acetaminophen ([2]; mice, acetaminophen 300 mg/kg s.c., vehicle pretreatment): about three
- effect on tail flick latency (analgesia), drug alone ([3]; control about 2 seconds): produced significant analgesia
- tail flick latency reached ([3]; acetaminophen 300 mg/kg s.c., cutoff time 10 seconds, control about 2 seconds): more than 10 seconds
- duration of significant increase in tail flick latencies ([3]; after acetaminophen 300 mg/kg s.c.): three
- core body temperature (CBT) [4]: small reduction in CBT
- patients with fever of greater than 37.5° C. [5]: 5.0%
- body temperature shortly after ischemic stroke [6]: small, but potentially beneficial, decrease in body temperature
- inhibition of COX-1 (COX-1): weakly
- inhibition of COX-2 (COX-2): weakly
- reduction of prostaglandin synthesis (prostaglandin synthesis): markedly
